From EP0623608B1, “BENZOPYRAN DERIVATIVE, PRODUCTION THEREOF, AND PHARMACEUTICAL PREPARATION CONTAINING THE SAME AS ACTIVE INGREDIENT” (TEIJIN LIMITED, priority 1992, dated 1993) come the findings set out here.

This experiment addresses ACAT enzyme. Put plainly: Measurement of ACAT enzyme inhibitory activity of rabbit small intestinal microsomes. The format is biochemical. The following applies: rabbit small intestinal mucosa microsome fraction 0.5 mg/ml, 43 µM oleoyl CoA containing [1-14C]oleoyl CoA, 37°C for 10 minutes. How it is done: Measurement of ACAT enzyme inhibitory activity (measurement of ACAT enzyme inhibitory activity of rabbit small intestinal microsomes
Rabbit small intestinal mucosa microsome was prepared and the ACAT enzyme activity was measured by the method of Salone and Field (reference: Biochemica et Biophysica, vol. 712, p. 557 (1982)) with a slight modification.
Using a 40 mM phosphate buffer containing 30 mM EDTA, 50 mM KCl, and 1.0M sucrose and having a pH of 7.4 (buffer A), rabbit small intestinal mucosa was homogenized. This was centrifuged at 10,000 x g and 4°C for 30 minutes to provide a supernatant. The supernatant was further centrifuged at 105,000 x g and 4°C for 1 hour to provide a precipitate. The precipitate was resuspended in the buffer A and used as the microsome fraction.
To the buffer A containing 43 µM bovine serum albumin and 0.5 mg/ml microsome fraction was added various concentrations of each specimen compound (compounds obtained in Examples 1, 3 to 5, and 7 to 14) in dimethylsulfoxide in amounts of 1% v/v. The mixture was heated at 37°C for 5 minutes. […]
0.111 kBq of [^3H] cholesteryl oleate and IN hydrochloric acid were added, and the mixture was stirred. The cholesteryl oleate extracted into the chloroform layer was isolated by a thin layer chromatography, and the radioactivity was measured as the ACAT activity.

Broadly, the IC50 is the concentration needed to halve the response being measured. High values mean weaker potency in that assay, low ones greater potency in that assay. Turning to `CCCCCCCCCCOc1ccc2c(=O)ccoc2c1NC(=O)C(C)(C)C` [Example 8, N-(7-decyloxyl-4-oxo-4H-1-benzopyran8-yl)-2,2-dimethylpropanamide], the IC50 was 130 nM.
